# Results: patent publication US9403806B1, “Cognition enhancing compounds and compositions, methods of making, and methods of treating” (NeuroSolis, Inc., priority 2010, dated 2016)
# Like-named read-outs stand apart in the source and are kept apart here.
# Tests used:
# [1] = target: T1, human muscarinic M3 receptors (Homo sapiens, UniProt P20309); experiment: IP production in A9L cells with human M3 receptors (IPOne TR-FRET), Example 28; type: cell-based; conditions: for huM3/A9L Smax: percentage of maximal stimulation by carbachol; for huM3/A9L ED50 relative to CCh*: potency relative to carbachol at its EC50, semi-quantitative
# T1 construct: host or cells: A9L cells
# Procedure: (§1) Muscarinic M1 and M3 agonist activity was evaluated by measuring the stimulation of inositol phosphate (IP) production in the presence of lithium chloride from A9L cells transfected with expression plasmids containing human muscarinic M1 and M3 receptors, respectively. The cell lines were a gift from Professor W Messer, and the methods were as described in Tejada F R et al. J. Med. Chem. 2006; 49: 7518-31 except that the assay was scaled down to run in 384 well plates, and IP was measured in the cell lysates using the non-isotopic IPOne TR-FRET assay (CIS-BIO, Inc).
# (§2) Cells were grown to 90% confluence in 384 well hi-base plates (Greiner Bio-One), compounds were added at suitable concentrations in growth medium containing 10 mM LiCl, buffered with an extra 10 mM HEPES (pH7.4), and incubated for 60 minutes at 37° C. Cells were lysed and assayed for IP following the manufacturer's instructions.
# (§3) The value for a full agonist is 100%, while partial agonists give values below 100%.
# [2] = tested on: pooled male human liver microsomes; experiment: Metabolism by human liver microsomes, Example 33; type: in vitro ADME; conditions: for metabolism in human liver microsomes (in words): 6 hours incubation (FIGS. 4A, 4B); for rate of metabolism of S- versus R-enantiomer: human liver microsomes, as also in rat liver microsomes and FMO Supersomes
# Procedure: Compounds were incubated with pooled male human liver microsomes (BD Biosciences, #452172) and an NADP-regenerating system in a phosphate buffer (pH 7.4) for a total of 6 hours. Aliquots were removed every 2 hours, and 1% formic acid was added to halt the reaction. Samples were centrifuged, filtered through 0.2 micron spinfilter and the amount of each compound in the supernatants was quantitated using LC/MS/MS.
# [3] = target: T2, human muscarinic M1 receptors (Homo sapiens, UniProt P11229); experiment: IP production in A9L cells with human M1 receptors (IPOne TR-FRET), Example 28; type: cell-based; conditions: for huM1/A9L Smax: percentage of maximal stimulation by carbachol; for huM1/A9L ED50 relative to CCh*: potency relative to carbachol at its EC50, semi-quantitative
# T2 construct: host or cells: A9L cells
# T2 sequence (P11229 1-460): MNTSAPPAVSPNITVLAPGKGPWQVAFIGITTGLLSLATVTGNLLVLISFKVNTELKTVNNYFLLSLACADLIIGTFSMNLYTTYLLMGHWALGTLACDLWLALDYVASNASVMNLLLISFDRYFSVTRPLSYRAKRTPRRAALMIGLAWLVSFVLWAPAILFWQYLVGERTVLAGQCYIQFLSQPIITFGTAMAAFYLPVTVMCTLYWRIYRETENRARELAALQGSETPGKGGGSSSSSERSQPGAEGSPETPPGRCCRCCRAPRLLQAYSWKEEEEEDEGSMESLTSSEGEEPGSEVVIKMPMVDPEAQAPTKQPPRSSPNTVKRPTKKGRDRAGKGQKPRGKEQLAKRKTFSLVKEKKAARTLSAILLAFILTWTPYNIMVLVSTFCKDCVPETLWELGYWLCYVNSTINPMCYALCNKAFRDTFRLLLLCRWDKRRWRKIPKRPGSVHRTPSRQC
# Procedure: as §1, §2, §3
# [4] = tested on: muscarinic M1 receptors in the hippocampus; experiment: In vivo inositol phosphate increase in hippocampus, Example 44; design: species or system Long Evans Hooded rats; conditions: rat, 3 mg/kg sc, 5 mmole/kg LiCl
# Procedure: (§4) In lithium chloride-treated laboratory rodents, engagement of muscarinic M1 receptors in the hippocampus may usefully be evaluated in vivo by measuring the increase in the tissue of inositol phosphate (Bymaster F P et al Brain Res 795 (1998) 179-190). This may also be extended to measure engagement of muscaric M3 receptors in the salivary glands.
# (§5) Experimental compounds were administered subcutaneously at 3 mg/kg using standard techniques to Long Evans Hooded rats weighing 225 to 350 g, and which had been pretreated with a subcutaneous injection of lithium chloride at a suitable dose between 3 and 5 mmole/kg. At suitable times the animals were briefly anesthetized using 5% isoflurane and euthanized by decapitation. The brains and submaxillary salivary glands were rapidly dissected out, and the hippocampuses were dissected from the brains. The dissected tissues were homogenized in a suitable volume of ice-cold phosphate-buffered saline containing 10 mM lithium chloride (pH=7.4) using a tissue homogenizer, and used immediately or frozen in aliquots at −80° C. for future use. The concentration of inositol-1-phosphate was determined in the homogenates using the […] IP-One Terbium TR-FRET assay kit (Cisbio Bioassays, cat. #62IPAPEJ) according to the manufacturer's instructions.
# in vitro = in vitro ADME; conditions: pH 7.4, 24 hours, room temperature
# Procedure: PAMPA is a useful in vitro model for predicting the passive diffusion of drugs across the blood-brain barrier (Li, D et al Eur jour of Med Chem 38 (2003) 223-232).
# Compounds were diluted in a 100 mM phosphate buffer (pH 7.4) to a concentration of 400 μM and the stock solutions were placed into a 96-well filter plate (Millipore, #MAIPN4510) pre-wetted with 20 mg/mL porcine brain polar lipid extract in 100% dodecane (Avanti, #131022) and placed into a 96-well acceptor plate (Millipore, #MSSACCEPTOR) whose wells were filled with the same phosphate buffer as in the filter plate. This assembly was incubated at room temperature for 24 hours. The experiment was halted by separating the filter plate from the acceptor plate. Aliquots were removed from the filter plate wells, acceptor plate wells, and stock solutions, and 1% trifluoroacetic acid was added to each. All solutions were measured by LC/UV, and passive diffusion rates were calculated using the peak area values (Avdeef, Alex. 2003. Page 147 in Absorption and Drug Development. Hoboken, N.J.: John Wiley & Sons).
# [5] = target: T2, human muscarinic M1 receptors; type: cell-based; conditions: for huM1/A9L Smax: percentage of maximal stimulation by carbachol; for huM1/A9L Potency relative to carbachol: relative to the potency of carbachol at its EC50
# Procedure: (§6) Muscarinic M1 and M3 agonist activity was evaluated by measuring the stimulation of inositol phosphate (IP) production in the presence of lithium chloride from A9L cells transfected with expression plasmids containing human muscarinic M1 and M3 receptors, respectively. The cell lines were a gift from Professor William Messer, and the methods were as described in Tejada et al. (J. Med. Chem. 2006; 49: 7518-31) except that the assay was scaled down to run in 384-well plates and the concentration of inositol-1-phosphate in the lysates was determined using the non-isotopic IP-One Terbium TR-FRET assay kit (Cisbio Bioassays, cat. #62IPAPEJ) according to the manufacturer's instructions.
# (§7) Cells were grown to 90% confluence in 384-well high-base, small-volume plates (Greiner Bio-One), compounds were added at suitable concentrations in growth medium containing 10 mM LiCl, buffered with an extra 10 mM HEPES (pH=7.4), and incubated for 60 minutes at 37° C. Cells were lysed and assayed for IP following the manufacturer's instructions.
# as §3
# [6] = target: T1, human muscarinic M3 receptors; type: cell-based; conditions: for huM3/A9L Smax: percentage of maximal stimulation by carbachol; for huM3/A9L Potency relative to carbachol: relative to the potency of carbachol at its EC50
# Procedure: as §6, §7, §3
# [7] = Blood and brain concentrations (rats), tail vein injection; type: in vivo, Long-Evans Hooded rats; conditions: male, Long-Evans Hooded, rat, in vivo, 3 mg/kg, 3 mg/kg tail vein injection, read-out: Brain Concentration at 1 hr
# Procedure: Long-Evans Hooded rats (Charles River: male, 230-300 g) were dosed with solutions of test compounds in PBS by tail vein injection. The dose for all compounds was 3 mg/kg. At one hour, the animals were anesthetized with isoflurane, and then euthanized by decapitation. Trunk blood was collected into a 1.5 mL microcentrifuge tube containing 15 U Heparin, and the plasma recovered after centrifugation. Brains were dissected, weighed, immediately chilled to 4° C., and homogenized using a PowerGen 125 homogenizer in five volumes of ice-cold 2% formic acid. Proteins were precipitated from plasma and brain homogenate with nine and five volumes respectively of ice-cold 2% formic acid and clarified by centrifugation. The supernatant was ultra-filtered by centrifugation through a 3K MWCO spin column (Pall Life Sciences), following the manufacturer's instructions. The concentration of compound in the ultra-filtrate was subjected to reverse-phase liquid chromatography using a 150×2.1 mm Agent C8 reverse-phase column on a Shimadzu Prominence LC, eluting the compounds with a gradient of 2% to 50% of acetonitrile+0.1% formic acid for all compounds. The concentration of the compound in the column effluent was measured using an Applied Biosystems API-3200 triple quadrupole mass spectrometer equipped with an electrospray sample injection system. The counts of the characteristic parent and product ions of each test compound were converted to concentration units by comparison with a standard curve.
# [8] = tested on: muscarinic M3 receptors in the salivary glands; experiment: In vivo inositol phosphate increase in salivary glands, Example 44; design: species or system Long Evans Hooded rats; conditions: rat, 3 mg/kg sc, 5 mmole/kg LiCl
# Procedure: as §4, §5
# [9] = tested on: pooled male human liver microsomes; experiment: Metabolism in human liver microsomes, Example 45; type: in vitro ADME
# Procedure: Aliquots were removed every 2 hours, and 1% formic acid was added to halt the reaction. Samples were centrifuged, filtered through 0.2 micron spinfilter, and the amount of each compound in the supernatants was quantitated using LC/MS/MS as follows. The ultra-filtrates were subjected to reverse-phase liquid chromatography using a 150×2.1 mm Agilent C8-reverse phase column on a Shimadzu Prominence LC, eluting the compound with a gradient of 2%-50% acetonitrile+0.1% formic acid over 5 minutes. The concentration of the compound in the column effluent was measured using an Applied Biosystems API-3200 triple quadrupole mass spectrometer equipped with a Turbo V source (electrospray sample injection) system. The counts of the characteristic parent ions of the protonated compound and product ions were converted to concentration by comparison with a standard calibration curve. The parent/daughter ion pairs that were monitored for each compound were: 166.0/82.0 (105), 166.0/82.0 (106b), 166.0/82.0 (106a), 169.0/83.0 (136), 168.2/83.0 (121), 168.1/83.0 (122a), 168.1/83.0 (122b), 170.2/83.0 (134), 168.2/84.1 (135), 168.1/84.1 (137) and 169.2/82.1 (138).
# T1 sequence (P20309 whole entry): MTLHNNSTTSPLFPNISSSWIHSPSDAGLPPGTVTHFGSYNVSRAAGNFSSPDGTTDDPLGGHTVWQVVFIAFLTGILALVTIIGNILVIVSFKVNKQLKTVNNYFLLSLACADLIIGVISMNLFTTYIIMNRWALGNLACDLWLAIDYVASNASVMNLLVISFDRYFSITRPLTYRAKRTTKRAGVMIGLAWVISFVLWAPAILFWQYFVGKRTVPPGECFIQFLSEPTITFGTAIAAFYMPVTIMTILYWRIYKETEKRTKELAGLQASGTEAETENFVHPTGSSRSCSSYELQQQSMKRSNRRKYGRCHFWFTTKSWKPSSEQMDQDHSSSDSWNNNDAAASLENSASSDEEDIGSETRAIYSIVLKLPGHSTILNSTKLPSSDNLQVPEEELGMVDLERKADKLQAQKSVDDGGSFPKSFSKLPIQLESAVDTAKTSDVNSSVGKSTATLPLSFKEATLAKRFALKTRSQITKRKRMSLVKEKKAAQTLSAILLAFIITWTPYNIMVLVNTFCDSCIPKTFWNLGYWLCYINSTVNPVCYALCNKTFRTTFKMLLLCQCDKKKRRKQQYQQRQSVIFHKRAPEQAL
Compound,huM3/A9L Smax [1] [%],huM3/A9L ED50 relative to CCh* [1],metabolism in human liver microsomes (in words) [2],rate of metabolism of S- versus R-enantiomer [2],huM1/A9L Smax [3] [%],huM1/A9L ED50 relative to CCh* [3],Increase in Inositol Phosphate in Hippocampus/Control [4] [%],"Papp at 24 h, 400 µM (in vitro; PAMPA, pH 7.4, 400 μM, read-out: PAMPA Permeability Coefficient (×10^6)) [×10⁻⁶ cm/s]",huM1/A9L Smax [5] [%],huM1/A9L Potency relative to carbachol [5],huM3/A9L Smax [6] [%],huM3/A9L Potency relative to carbachol [6],concentration at 1 h [7] [µM],Increase in Inositol Phosphate in Salivary Gland/Control [8] [%],Loss at 6 hrs (%) [9] [%],Increase in Inositol Phosphate in Hippocampus/Control ([4]; 3 mg/kg) [%],PAMPA Permeability Coefficient (×10^6) (in vitro; 400 μM),Increase in Inositol Phosphate in Salivary Gland/Control ([8]; 3 mg/kg) [%]
"Cc1noc([C@H]2CCCNC2)n1 [Compound 3a, S-(+)-3-methyl-5-(piperidin-3-yl)-1,2,4-oxadiazole]",66,+/− (+/− potency 0.5-2x CCh),metabolized significantly less in human liver microsomes than in rat liver microsomes,metabolized faster than the R-enantiomers,129,+ (+ potency 2-10x CCh),–,–,–,–,–,–,–,–,–,–,–,–
"[2H]C([2H])([2H])c1noc(C23CNCC2C3)n1 (stereo not shown) [Compound 138, 5-(3-azabicyclo[3.1.0]hexan-1-yl)-3-methyl-d3-1,2,4-oxadiazole]",–,–,–,–,–,–,357,4.1,93,1.34,43,0.37,5.5,217,29,–,–,–
"[2H]C([2H])([2H])c1noc(C23CNC([2H])([2H])C2C3)n1 (stereo not shown) [Compound 137, 5-(6,6-d2-3-azabicyclo[3.1.0]hexan-1-yl)-3-methyl-1,2,4-oxadiazole]",–,–,–,–,–,–,–,–,97,1.26,62,0.19,5.5,–,24,503,4.00 ×10^6,198
"Cc1noc([C@@H]2CCCNC2)n1 [Compound 3b, R-(−)-3-methyl-5-(piperidin-3-yl)-1,2,4-oxadiazole]",47,− (− potency <0.5-0.1x CCh),metabolized significantly less in human liver microsomes than in rat liver microsomes,–,147,+/− (+/− potency 0.5-2x CCh),–,–,–,–,–,–,–,–,–,–,–,–
"[2H]C([2H])([2H])c1noc([C@@H]2CCCNC2)n1 [Compound 7b, R-(−)-3-D3-methyl-5-(piperidin-3-yl)-1,2,4-oxadiazole]",86,+/− (+/− potency 0.5-2x CCh),metabolized significantly less in human liver microsomes than in rat liver microsomes,–,90,+ (+ potency 2-10x CCh),–,–,–,–,–,–,–,–,–,–,–,–
"[2H]C([2H])([2H])c1noc([C@H]2CCCNC2)n1 [Compound 7a, S-(+)-3-D3-methyl-5-(piperidin-3-yl)-1,2,4-oxadiazole]",76,−− (−− potency <0.1x CCh),metabolized significantly less in human liver microsomes than in rat liver microsomes,metabolized faster than the R-enantiomers,81,+/− (+/− potency 0.5-2x CCh),–,–,–,–,–,–,–,–,–,–,–,–
